For series [1], the target named is ClpC1 NTD protein (M. tuberculosis) (Mycobacterium tuberculosis, UniProt P9WPC9). The series is described as follows: biochemical. The class given is binding.
The nature of series [2]: Hepatocyte stability, mice. The series is classed as in vitro ADME. The note with it: mouse, pH 7.4. The essentials:
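Cryopreserved mouse hepatocytes (about 1 million cells/mL, pH 7.4, 50% species serum) incubated with 1 µM compound, DMSO <0.05%, at 37 °C for up to 6 h, sampled at 6 time points. Parent remaining measured by HPLC-MS/MS; half-life converted via well-stirred liver model to clearance as % Qh.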

Series [3] is classed as in vitro ADME, Rat. The note with it: for Microsomal Stability Rat: clearance in microsomes. The protocol: (§1) The kinetics of compound degradation in liver microsomes is assessed in an assay with 1 µmol/l of compound and 0.5 mg/ml liver microsomes in a medium of 100 mM Tris-HCl pH 7.5, 6.5 mM MgCl2 and 1 mM NADPH at 37 °C. The reaction is stopped at multiple time points by adding acetonitrile. After centrifugation, the compound concentration is measured in the supernatants by high-performance liquid chromatography (HPLC) tandem mass spectrometry (MS/MS). The results are fitted to a first-order decay and the half-lives are converted to clearance (stated as % of the liver blood flow (%Qh)) using the well-stirred liver model.

Series [4] is classed as in vitro ADME, Rat. The note with it: rat, pH 7.4.
Another series relates to Msm 700084. The series is described as follows: microbe, parasite or virus in culture. The series is classed as cell-based.
The next series has as its system Msm 607. The series is described as follows: microbe, parasite or virus in culture. The class given is cell-based.
The format of series [5] is in vitro ADME, Human. The note with it: human, pH 7.4.
Series [6] has as its system M. tuberculosis H37Rv (ATCC 27294). The series is described as follows: microbe, parasite or virus in culture. The series is classed as cell-based.
The test system of another series is Caco-2 monolayers. The series is described as follows: in vitro. The note with it: human, Caco-2. In a few lines: (§2)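 Permeability across Caco-2 monolayers was measured in both directions, apical-to-basolateral and basolateral-to-apical, in 10^-6 cm s-1. Efflux ratio = P(B−A)/P(A−B). Intrinsic permeability is the mean of P(A−B) and P(B−A).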
A short description of a further series: in vitro. The note with it: human. In a few lines:
as §2

Series [7] is classed as in vitro ADME, Mice. The note with it: for Microsomal Stability Mice: clearance in microsomes. The protocol:
as §1

A short description of series [8]: Microsomal stability, human. The series is classed as in vitro ADME. The note with it: for Microsomal Stability Human: clearance in microsomes. The protocol:
as §1

The mark [9] stands for this setting: Mycolicibacterium smegmatis, 700084, single determinations, read-out: Msm 700084 MIC.
The mark [10] stands for this setting: Mycolicibacterium smegmatis, 700084, read-out: MIC Msm 700084.
The mark [11] stands for this setting: Mycolicibacterium smegmatis, 607, read-out: MIC Msm 607.
[12] abbreviates: Mycobacterium tuberculosis, Mtb H37Rv (Supplementary Table 2), read-out: MIC Mtb.

Experimental findings from publication PMC10914731, “Homo-BacPROTAC-induced degradation of ClpC1 as a strategy against drug-resistant mycobacteria” (Nature Communications, 2024) are described below.

Values after ≈ are worked out from the molar mass of the structure shown. Values joined by “and” are separate entries in the source; they are usually repeats but may differ in a detail not shown here. Equal values may be shown once. Read-outs that look alike come from different tables or passages of the source. *1 amine or outer side, *2 acyl side, *3 side chain or, on linkers, in order; H or OH if unused. Where a SMILES comes first, the peptide text is derived from it. [ ]: non-standard residue; d: D form. X4 = C=CCO[C@H](c1ccccc1)[C@H](N[*:1])C(=O)[*:2]; NMeLeu(5-OH,4R) = CN[C@@H](C[C@@H](C)CO)C(=O)O; Trp(1-Me) = Cn1cc(C[C@H](N)C(=O)O)c2ccccc21; NMeL = CN[C@@H](CC(C)C)C(=O)O

ClpC1 NTD protein (M. tuberculosis), sequence (P9WPC9 1-156, looked up, natural form): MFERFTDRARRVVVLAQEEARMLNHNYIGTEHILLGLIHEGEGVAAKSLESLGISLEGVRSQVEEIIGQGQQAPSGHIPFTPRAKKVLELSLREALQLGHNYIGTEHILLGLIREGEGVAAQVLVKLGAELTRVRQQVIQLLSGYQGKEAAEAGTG

With `C=CCO[C@H](c1ccccc1)[C@@H]1NC(=O)[C@H](C)NC(=O)[C@H](C[C@@H](C)CO)N(C)C(=O)[C@H](Cc2cn(C)c3ccccc23)NC(=O)[C@H](C(C)C)NC(=O)[C@H](CC(C)C)N(C)C(=O)[C@H](C(C)C)NC1=O` [Compound 14] (cyclo(A[X4]V[NMeL]V[Trp(1-Me)][NMeLeu(5-OH,4R)])), the Kd in series [1] (SPR (Supplementary Table 1), read-out: KD ClpC1-NTD Mean ± SD) came out at 10 ± 1 nM. For the same compound, in series [1] (SPR, single independent measurements, read-out: KD ClpC1-NTD), the Kd is 9.31 nM and 10.7 nM. Besides, in [2], the “Hepatocyte Mice” value was determined as 29 %Qh and the “Hepatocyte Stability Mouse QH” value is recorded as 28.905%. In series [3], the “Microsomal Stability Rat QH” value was 84.3% and 84%; the “Microsomal Stability Rat” value is on record as 84 %Qh. For the same compound, in series [4], the “Hepatocyte Rat” value amounted to 57 %Qh and the “Hepatocyte Stability Rat QH” value is 56.626%. Moreover, in the series on Msm 700084 (setting [9]), the MIC was found to be 12.5 µM (≈ 11.8 µg/mL). The MIC in the series with Msm 700084 (setting [10]) was 12.5 µM (≈ 11.8 µg/mL). In addition, the MIC in the series with Msm 607 (setting [11]) amounted to 1.6 µM (≈ 1.51 µg/mL). The MIC in the series on Msm 607 (Mycolicibacterium smegmatis, 607, read-out: Msm 607 MIC, single determinations) is 1.56 µM (≈ 1.47 µg/mL). In series [5], the “Hepatocyte Human” value is listed as 41 %Qh and the “Hepatocyte Stability Human QH” value is given as 41.006%. Besides, in series [6] (setting [12]), the MIC amounted to 3.1 µM (≈ 2.92 µg/mL). Further, the MIC in series [6] (Mycobacterium tuberculosis, single determinations, read-out: Mtb MIC) stood at 3.12 µM (≈ 2.95 µg/mL). Further, the “Caco-2 Int. Perm” value with Caco-2 monolayers worked out at 21.7. Besides, the efflux ratio in the series “in vitro” (Caco-2) came to 12.1. Also, in the series “in vitro” (Caco-2, CACO permeability PEBA), the Papp B→A was determined as 30 ×10⁻⁶ cm/s. In addition, in series [7], the “Microsomal Stability Mouse QH” value was >88.4 >88.4% and the “Microsomal Stability Mice” value is reported as more than 88 %Qh. Besides, in series [8], the “Microsomal Stability Human QH” value was >88.4 >88.4% and the “Microsomal Stability Human” value is on record as more than 88 %Qh.

In the case of `COC(c1ccccc1)C1NC(=O)C(C)NC(=O)C(CC(C)CO)N(C)C(=O)C(Cc2cn(CC=CCn3cc(CC4NC(=O)C(C(C)C)NC(=O)C(CC(C)C)N(C)C(=O)C(C(C)C)NC(=O)C(C(OC)c5ccccc5)NC(=O)C(C)NC(=O)C(CC(C)CO)N(C)C4=O)c4ccccc43)c3ccccc23)NC(=O)C(C(C)C)NC(=O)C(CC(C)C)N(C)C(=O)C(C(C)C)NC1=O` (centres unmarked) [Compound 15], the Kd in [1] (SPR, individual measurements (source data), read-out: KD ClpC1-NTD) is 1.81 nM and 0.654 nM. The Kd in [1] (SPR, read-out: ClpC1-NTD KD Mean ± SD) was 1.2 ± 0.8 nM. Also, in series [2], the “Hepatocyte Mice” value is reported as 15 %Qh and the “Hepatocyte Stability Mouse QH” value came out at 15.001%. In addition, in [3], the “Microsomal Stability Rat QH” value is on record as less than 23.100% and the “Microsomal Stability Rat” value was less than 23 %Qh. In series [4], the “Hepatocyte Rat” value is on record as 6 %Qh and the “Hepatocyte Stability Rat QH” value is 6.192%. For the same compound, the MIC in the series on Msm 700084 (setting [9]) was found to be 50 µM (≈ 92.9 µg/mL). Moreover, in the series with Msm 700084 (setting [10]), the MIC stood at 50 µM (≈ 92.9 µg/mL). In addition, in the series with Msm 607 (setting [11]), the MIC was determined as 2.3 ± 0.9 µM (≈ 4.27 µg/mL). Also, in [5], the “Hepatocyte Human” value is listed as 12 %Qh and the “Hepatocyte Stability Human QH” value was 12.386%. Besides, the MIC in series [6] (Mycobacterium tuberculosis, M. tuberculosis H37Rv strain, read-out: MIC Mtb H37Rv Mean ± SD) is 0.2 ± 0.1 µM (≈ 0.372 µg/mL). Besides, in series [6] (setting [12]), the MIC was 0.2 ± 0.1 µM (≈ 0.372 µg/mL). The MIC in [6] (individual measurements (source data), read-out: Mtb MIC) was 0.200 µM and 0.390 µM and 0.097 µM (2×). Moreover, in the series on Caco-2 monolayers, the “Caco-2 Efflux ratio” value came to 0.8, the “Caco-2 Int. Perm” value was determined as 2.0, the “Caco-2 permeability P (A-B)” value is listed as 2.2 and the “Caco-2 permeability P (B-A)” value is 1.8. Further, in series [7], the “Microsomal Stability Mouse QH” value is on record as less than 24.200% and the “Microsomal Stability Mice” value is given as less than 24 %Qh. In series [8], the “Microsomal Stability Human QH” value is given as less than 24.400% and the “Microsomal Stability Human” value is listed as less than 24 %Qh.
